These results are taken from US20260132123A1, “ABAD INHIBITOR COMPOUNDS” (UNIVERSITY COURT OF THE UNIVERSITY OF ST ANDREWS, priority 2021, published 2026).

For this assay, the target named is T1, 17β-HSD10 (Homo sapiens, UniProt Q99714).
T1 construct: Histev (histidine tag with TEV site) (N, cleaved yes); made in house; host or cells: E. coli BL21-CodonPlus
T1 sequence (Q99714 1-261): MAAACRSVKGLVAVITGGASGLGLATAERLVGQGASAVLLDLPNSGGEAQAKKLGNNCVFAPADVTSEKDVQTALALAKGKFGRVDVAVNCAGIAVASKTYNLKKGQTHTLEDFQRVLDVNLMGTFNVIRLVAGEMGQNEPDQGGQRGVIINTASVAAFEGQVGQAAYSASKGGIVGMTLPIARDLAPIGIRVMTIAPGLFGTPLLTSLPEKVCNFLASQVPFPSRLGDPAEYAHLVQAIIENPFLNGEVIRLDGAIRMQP
Put plainly: 17β-HSD10 (ABAD) enzyme inhibition assay, NADH oxidation read at 340 nm (primary screen and dose response). It counts as biochemical. To be noted: for EC50 / Max. Effect (%) / Hill Slope / Max. Fit / Min. Fit: recombinant 17βHSD10 enzyme assay; for Hill Slope / Max. Fit / Min. Fit: curve fit. Summed up: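 Tag-cleaved recombinant human 17β-HSD10 (2.5 nM) preincubated 15 min with compound in Tris pH 7.4, NaCl, DTT, Tween, BSA (catalase in some runs), then 100 μM acetoacetyl-CoA and NADH added. NADH oxidation by A340 fall: 35 min endpoint for screening at 10 μM; continuous 45 min for dose response.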

Take `CNC(=O)CN(C)c1cccc(N(CC(C)C)C(=O)c2ccccc2F)c1` [ESC1002572]: the EC50 was 11.2 µM, the “Max. Effect (%)” value is 65%, the “Hill Slope” value is recorded as 0.98 and the “Max. Fit” value was 100. Besides, the “Min. Fit” value stood at 2.

With `O=C(c1sccc1Cl)N1CCC[C@H]1c1ccccc1-c1ccc(O)cc1` (racemic) [ESC1002696], the EC50 is 0.302 µM, the “Max. Effect (%)” value was 97%, the “Hill Slope” value turned out to be 1.2 and the “Max. Fit” value was found to be 97. The “Min. Fit” value is 1.

As to `O=C(c1sccc1Cl)N1CCC[C@H]1c1ccccc1-c1ccc(F)c(O)c1` (single isomer, unassigned) [ESC1002839], the EC50 is 4.17 µM, the “Max. Effect (%)” value was 85%, the “Hill Slope” value was determined as 1.1 and the “Max. Fit” value worked out at 96. For the same compound, the “Min. Fit” value is listed as −4.

As to `CC(C)CN(C(=O)c1ccccc1F)c1cccc(N(C)Cc2c[nH]cn2)n1` [ESC1002795], the EC50 was 5.62 µM, the “Max. Effect (%)” value was found to be 77%, the “Hill Slope” value was found to be 1.1 and the “Max. Fit” value is 93. Further, the “Min. Fit” value amounted to 0.

`CC(C)CN(C(=O)c1ccccc1F)c1cccc(N(C)Cc2nc[nH]n2)c1` [ESC1002770]: the EC50 was 2.69 µM, the “Max. Effect (%)” value is 86%, the “Hill Slope” value was found to be 1.2 and the “Max. Fit” value was determined as 91. In addition, the “Min. Fit” value is given as −4.

In the case of `COc1cccc(-c2ccccc2[C@@H]2CCCN2C(=O)c2cn[nH]c2)c1` (racemic) [ESC1002601], the EC50 was 6.31 µM, the “Max. Effect (%)” value was 82%, the “Hill Slope” value came to 0.74 and the “Max. Fit” value was 115. In addition, the “Min. Fit” value is listed as −7.

For `COc1cccc(-c2ccccc2[C@@H]2CCCN2C(=O)c2nccn2C)c1` (racemic) [ESC1002661], the EC50 is greater than 20 µM and the “Max. Effect (%)” value is on record as 7%.

In the case of `COc1cccc(-c2ccccc2[C@@H]2CCCN2C(=O)c2snc(Cl)c2Cl)c1` (racemic) [ESC1002627], the EC50 is greater than 20 µM and the “Max. Effect (%)” value is on record as 5%.

As for `COc1cccc(-c2ccccc2[C@H]2CCCN2C(=O)C2CCN(C)CC2)c1` [ESC1002436], the EC50 is greater than 20 µM and the “Max. Effect (%)” value is given as 2%.

On to `Cc1ccsc1C(=O)N1CCC[C@H]1c1ccccc1-c1ccccc1Cl` (single isomer, unassigned) [ESC1002766], for which the EC50 was greater than 20 µM and the “Max. Effect (%)” value was determined as 14%.

For `COc1cccc(-c2ccccc2[C@H]2CCCN2C(=O)c2sccc2F)c1` [ESC1002431], the EC50 was 0.977 µM, the “Max. Effect (%)” value was 96%, the “Hill Slope” value was determined as 1.5 and the “Max. Fit” value is 95. In addition, the “Min. Fit” value was determined as 1.

With `CC(C)CN(C(=O)c1ccc(Cl)s1)c1cccc(N(C)Cc2c[nH]cn2)c1` [ESC1002460, 5-chloro-N-[3-[1H-imidazol-4-ylmethyl(methyl)amino]phenyl]-N-isobutyl-thiophene-2-carboxamide], the EC50 is 1.2 µM, the “Max. Effect (%)” value was 90%, the “Hill Slope” value is recorded as 1 and the “Max. Fit” value is 95. Moreover, the “Min. Fit” value is −5.

Take `COc1cccc(-c2ccccc2[C@H]2CCCN2C(=O)c2sccc2C)c1` (single isomer, unassigned) [ESC1002420]: the half-maximal effective concentration (EC50) is greater than 20 µM and the “Max. Effect (%)” value is reported as 28%.

For `COc1cccc(-c2ccccc2[C@H]2CCCN2C(=O)c2snnc2C)c1` [ESC1002429], the “17β-HSD10 / ABAD activity in words (SAR discussion)” value is listed as “significantly less active”, the concentration giving a half-maximal response (EC50) was greater than 20 µM and the “Max. Effect (%)” value amounted to 6%.

Consider `Cc1ccc(C(=O)N(CC(C)C)c2cccc(N(C)Cc3c[nH]cn3)c2)c(C)c1` [ESC1002492, N-[3-[1H-imidazol-4-ylmethyl(methyl)amino]phenyl]-N-isobutyl-2,4-dimethyl-benzamide], for which the EC50 is 0.871 µM, the “Max. Effect (%)” value came to 93%, the “Hill Slope” value was 0.73 and the “Max. Fit” value is on record as 104. In addition, the “Min. Fit” value was −10.

On to `Cc1ccsc1C(=O)N1CCC[C@H]1c1ccccc1-c1ccccc1Cl` (single isomer, unassigned) [ESC1002767], for which the EC50 is 0.155 µM, the “Max. Effect (%)” value was 96%, the “Hill Slope” value turned out to be 0.98 and the “Max. Fit” value worked out at 96. Moreover, the “Min. Fit” value was −2.

For `CC(C)CN(C(=O)c1ccccc1F)c1cccc(N(C)Cc2c[nH]nn2)c1` [ESC1002675], the EC50 was 4.47 µM, the “Max. Effect (%)” value is recorded as 75%, the “Hill Slope” value was 1.2 and the “Max. Fit” value is 87. Also, the “Min. Fit” value is on record as −2.

`COc1cccc(-c2ccccc2[C@@H]2CCCN2C(=O)C(C)C)c1` (racemic) [ESC1002603]: the EC50 is greater than 20 µM and the “Max. Effect (%)” value was 21%.

On to `COc1cccc(-c2ccccc2[C@H]2CCCN2C(=O)c2ccccc2C)c1` [ESC1002434], for which the “17β-HSD10 / ABAD activity in words (SAR discussion)” value was “not tolerated”, the EC50 was greater than 20 µM and the “Max. Effect (%)” value came to 20%.

For `COc1ccccc1C(=O)N(CC(C)C)c1cccc(N(C)Cc2c[nH]cn2)c1` [ESC1002458], the EC50 was 0.55 µM, the “Max. Effect (%)” value amounted to 96%, the “Hill Slope” value was 1 and the “Max. Fit” value turned out to be 97. Besides, the “Min. Fit” value is recorded as −7.

As to `CC(C)CN(C(=O)c1ccccc1F)c1cccc(NCc2c[nH]c(C(C)C)n2)c1` [ESC1002632], the EC50 was greater than 20 µM and the “Max. Effect (%)” value was found to be 18%.

For `COc1cccc(-c2ccccc2[C@@H]2CCCN2C(=O)C(C)(C)C)c1` (racemic) [ESC1002604], the EC50 is greater than 20 µM and the “Max. Effect (%)” value is on record as 20%.

With `COc1cccc(-c2ccccc2[C@H]2CCCN2C(=O)Cc2ccccc2)c1` [ESC1002506], the EC50 was greater than 20 µM and the “Max. Effect (%)” value was determined as 8%.

Take `Cc1ccccc1C(=O)N(CC(C)C)c1cccc(N(C)Cc2c[nH]cn2)c1` [ESC1002491, N-[3-[1H-imidazol-4-ylmethyl(methyl)amino]phenyl]-N-isobutyl-2-methyl-benzamide]: the EC50 was 1.17 µM, the “Max. Effect (%)” value is 96%, the “Hill Slope” value is recorded as 1 and the “Max. Fit” value was 102. Also, the “Min. Fit” value amounted to 2.

For `Cc1ccc(C(=O)N(CC(C)C)c2nccc(N(C)Cc3cnc[nH]3)n2)cc1` [ESC1002817], the EC50 was greater than 20 µM and the “Max. Effect (%)” value is given as 4%.

In the case of `COc1cccc(-c2ccccc2[C@@H]2CCCN2C(=O)c2cocn2)c1` (racemic) [ESC1002598], the EC50 is greater than 20 µM and the “Max. Effect (%)” value stood at 50%.

Regarding `O=C(c1[nH]ncc1Cl)N1CCC[C@H]1c1ccccc1-c1cccc(O)c1` (single isomer, unassigned) [ESC1002798], the EC50 is greater than 20 µM and the “Max. Effect (%)” value amounted to 18%.

For the compound `O=C(c1sccc1Cl)N1CCC[C@H]1c1ccccc1-c1cc(O)cc(F)c1` (single isomer, unassigned) [ESC1002800], the EC50 is greater than 20 µM and the “Max. Effect (%)” value is on record as 10%.

Usually EC50 stands for the concentration needed to bring the measured effect to its halfway point.
